Results on 3 molecules are retold here after ChEMBL document CHEMBL3243936, “Facile syntheses of potent dopaminergic argonists and their effect on neurotransmitter release” (J Med Chem, 1978).

Test [1] has as its target Sodium-dependent dopamine transporter (Rattus norvegicus) (UniProt P23977). As to the kind of experiment: Agonist activity at Wistar rat striatum dopamine transporter assessed as tritium efflux by measuring [3H]dopamine release at 2 uM after 20 mins by liquid scintillation counting analysis relative to total tissue content.
Test [2] has as its target Sodium-dependent serotonin transporter (Rattus norvegicus) (UniProt P31652). The test is described as follows: Agonist activity at Wistar rat brain serotonin transporter assessed as tritium efflux by measuring [3H]serotonin release at 2 uM after 20 to 30 mins by liquid scintillation counting analysis relative to control.
For the next test, the species on record is Rattus norvegicus. As to the kind of experiment: Agonist activity at Wistar rat brain GABA transporter assessed as tritium efflux by measuring [3H]GABA release at 2 uM after 20 to 30 mins by liquid scintillation counting analysis relative to control.
Test [3] addresses T1, Vesicular acetylcholine transporter (Rattus norvegicus) (UniProt Q62666).
T1 sequence (whole entry): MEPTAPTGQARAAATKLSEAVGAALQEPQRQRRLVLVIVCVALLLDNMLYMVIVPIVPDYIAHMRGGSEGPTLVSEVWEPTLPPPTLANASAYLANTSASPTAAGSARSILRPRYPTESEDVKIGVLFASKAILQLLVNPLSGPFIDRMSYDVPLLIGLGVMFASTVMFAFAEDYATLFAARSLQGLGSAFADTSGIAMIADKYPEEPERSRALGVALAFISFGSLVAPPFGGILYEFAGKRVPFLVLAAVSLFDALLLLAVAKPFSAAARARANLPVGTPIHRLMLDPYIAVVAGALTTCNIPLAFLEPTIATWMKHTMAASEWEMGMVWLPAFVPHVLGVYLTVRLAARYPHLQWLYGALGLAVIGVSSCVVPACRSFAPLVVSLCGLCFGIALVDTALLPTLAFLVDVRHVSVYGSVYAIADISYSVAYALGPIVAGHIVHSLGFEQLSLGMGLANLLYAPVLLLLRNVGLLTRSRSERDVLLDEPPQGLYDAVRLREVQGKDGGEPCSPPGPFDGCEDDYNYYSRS
As to the kind of experiment: Agonist activity at Wistar rat brain cholinergic transporter assessed as tritium efflux by measuring [3H]choline release at 2 uM after 20 to 30 mins by liquid scintillation counting analysis relative to control.

For test [4], the target named is Sodium-dependent dopamine transporter (Rattus norvegicus) (UniProt P23977). The test is described as follows: Agonist activity at Wistar rat striatum dopamine transporter assessed as tritium efflux by measuring [3H]dopamine release at 1 uM after 20 to 30 mins by liquid scintillation counting analysis in presence of nomifensine.
Chain of Sodium-dependent dopamine transporter (Rattus norvegicus) (P23977 whole entry): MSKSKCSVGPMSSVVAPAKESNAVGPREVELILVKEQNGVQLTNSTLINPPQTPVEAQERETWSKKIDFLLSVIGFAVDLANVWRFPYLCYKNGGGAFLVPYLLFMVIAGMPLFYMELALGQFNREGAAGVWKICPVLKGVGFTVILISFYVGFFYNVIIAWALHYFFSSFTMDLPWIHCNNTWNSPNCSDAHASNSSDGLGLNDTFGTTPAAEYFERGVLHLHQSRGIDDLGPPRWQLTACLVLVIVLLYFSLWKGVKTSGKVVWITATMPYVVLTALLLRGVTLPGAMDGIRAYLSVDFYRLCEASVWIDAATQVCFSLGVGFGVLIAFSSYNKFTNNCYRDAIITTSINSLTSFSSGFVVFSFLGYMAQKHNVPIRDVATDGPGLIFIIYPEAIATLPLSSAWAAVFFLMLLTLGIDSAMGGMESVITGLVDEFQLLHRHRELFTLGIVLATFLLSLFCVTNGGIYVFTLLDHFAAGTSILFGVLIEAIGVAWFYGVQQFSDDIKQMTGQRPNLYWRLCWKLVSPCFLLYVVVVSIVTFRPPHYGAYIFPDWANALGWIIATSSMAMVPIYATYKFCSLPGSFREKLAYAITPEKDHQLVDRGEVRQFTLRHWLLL
Test [5] has the same target. The test is described as follows: Agonist activity at Wistar rat cortex dopamine transporter assessed as tritium efflux by measuring [3H]noradrenaline release at 1 uM after 20 to 30 mins by liquid scintillation counting analysis in presence of nomifensine. Type of test: tissue-based.

Activity calls are given as the source filed them. The rule behind the calls is not given here.

Chain of Sodium-dependent serotonin transporter (Rattus norvegicus) (P31652 whole entry): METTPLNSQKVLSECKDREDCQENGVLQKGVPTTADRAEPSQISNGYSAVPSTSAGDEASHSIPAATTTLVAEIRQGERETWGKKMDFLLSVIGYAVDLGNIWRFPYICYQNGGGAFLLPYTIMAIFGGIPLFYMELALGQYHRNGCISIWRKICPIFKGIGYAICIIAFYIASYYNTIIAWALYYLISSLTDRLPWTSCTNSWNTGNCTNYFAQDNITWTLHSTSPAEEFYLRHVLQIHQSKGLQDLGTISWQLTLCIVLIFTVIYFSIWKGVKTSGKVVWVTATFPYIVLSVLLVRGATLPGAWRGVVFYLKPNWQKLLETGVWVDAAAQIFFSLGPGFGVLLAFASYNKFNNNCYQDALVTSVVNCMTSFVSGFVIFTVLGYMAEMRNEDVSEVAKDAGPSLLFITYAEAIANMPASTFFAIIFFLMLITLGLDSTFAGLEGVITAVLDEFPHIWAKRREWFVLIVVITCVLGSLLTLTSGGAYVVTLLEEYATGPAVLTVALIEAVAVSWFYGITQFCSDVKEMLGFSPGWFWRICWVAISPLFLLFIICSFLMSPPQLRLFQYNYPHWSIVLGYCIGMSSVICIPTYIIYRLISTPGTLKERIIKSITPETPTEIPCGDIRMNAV

As for `NC1CCc2c(ccc(O)c2O)C1` (stereo unspecified), the Activity in test [1] came to 6.5%. The outcome (in test [2]; in the test filed under Rattus norvegicus; in test [3]) was inactive.

For the molecule `NC1CCc2ccccc2C1` (stereo unspecified), the Activity in test [1] was -0.7%.

Take `NC1CCc2cc(O)c(O)cc2C1` (stereo unspecified): the Activity in test [1] stood at 25.1%. Also, the outcome (in test [2]; in the test filed under Rattus norvegicus; in test [3]; in test [4]; in test [5]) was inactive.
